Experimental data from patent US11578041B2, “Crystals of hydroxychloroquine sulfate” (Genovate Biotechnology Co. Ltd., priority 2020, dated 2023).
One block for each compound: values may come before it.

Key:
[1] = system: Rat Pleurisy Macrophage Model; conditions: compared with (R)-(-)-isomer; cited from earlier work
[2] = animal study; cited from earlier work
[3] = Hygroscopicity by dynamic vapor sorption analysis; format: physicochemical; conditions: for RH at which moisture is adsorbed (adsorption curve) / moisture content: 25° C.; for RH at which moisture is adsorbed (adsorption curve): 5% RH increase per step from 0 to 95% RH; for moisture content: at 95% RH; for hygroscopicity compared with the amorphous form: overall conclusion
Experimental: Type A crystal, type B crystal, and an amorphous form of (S)-(+)-hydroxychloroquine sulfate were subjected to dynamic vapor sorption analysis to compare their hygroscopicity using a VTI-SA vapor sorption analyzer from TA Instruments (_New Castle, Del., USA). Each was exposed to a series of relative-humidity (“RH”)-change steps at 25° C., i.e, a 5% RH increase per step from 0 to 95% RH and then a 5% RH decrease per step from 95% to 5% RH.

[4] = Thermal stability by Variable Temperature PXRD under nitrogen; format: physicochemical
Experimental: The stability of type A crystal was also determined by heating the crystal to 30° C., 80° C., 130° C., 160° C., 180° C., and 210° C. under nitrogen using the Variable Temperature PXRD technique. […] Only when the temperature reached 80° C., 160° C. and 210° C., it was converted to type B, C, and D crystals, respectively.

[5] = Stability of crystal stirred in solvents, solid analysed by XRPD and chiral HPLC; format: physicochemical; conditions: room temperature, 1 day
Experimental: Further, the stability of type A crystal was determined by stirring the crystal (10 mg) in each of nine solvent (0.5 mL) at room temperature for 1 day. For the nine solvents, see Table 6 below. The resulting solid was analyzed by XRPD and chiral HPLC containing a chiral column of DAICEL CHIRALCEL OD-H, 250×4.6 mm, 5 μm.

[6] = Solubility test in 16 solvents by stepwise solvent addition; format: physicochemical

Compound: CCN(CCO)CCC[C@H](C)Nc1ccnc2cc(Cl)ccc12.O=S(=O)(O)O (single isomer, unassigned) [(S)-(+)-isomer]
more efficacious than the (R)-(-)-isomer [1]: 70% | accumulation in ocular tissues compared with the (R)-(-)-isomer [2]: much less

Compound: CCN(CCO)CCC[C@H](C)Nc1ccnc2cc(Cl)ccc12.O=S(=O)(O)O [amorphous form, (S)-(+)-hydroxychloroquine sulfate, reference compound]
RH at which moisture is adsorbed (adsorption curve) [3]: 25 % RH | moisture content [3]: 51% | susceptibility to environment (desorption curve) ([3]; compared with type A and type B crystals): much more susceptible to an environment

Second part, led by results:

RH at which moisture is adsorbed (adsorption curve) [3]: > 85 % RH | moisture content [3]: 19% | hygroscopicity compared with the amorphous form [3]: less hygroscopic | stability at room temperature ([4]; Variable Temperature PXRD under nitrogen): highly stable | temperature at which converted to type B crystal ([4]; heating under nitrogen): 80 °C | temperature at which converted to type C crystal ([4]; heating under nitrogen): 160 °C | temperature at which converted to type D crystal ([4]; heating under nitrogen): 210 °C | Crystal change ([5]; Acetone): Not found | ee of resulting solid ([5]; Acetone): 95.4% | Crystal change ([5]; Acetonitrile): Not found | ee of resulting solid ([5]; Acetonitrile): 95.6% | Crystal change ([5]; Dichloromethane): Not found | ee of resulting solid ([5]; Dichloromethane): 95.8% | Crystal change ([5]; Ethanol): Not found | ee of resulting solid ([5]; Ethanol): 96.7% | Crystal change ([5]; Ethanol/water (9/1)): Not found | ee of resulting solid ([5]; Ethanol/water (9/1), starting ee 96.2%): 99.2% | Crystal change ([5]; Ethyl acetate): Not found | ee of resulting solid ([5]; Ethyl acetate): 88.8% | Crystal change ([5]; Isopropyl acetate): Not found | ee of resulting solid ([5]; Isopropyl acetate): 95.5% | Crystal change ([5]; Methanol): Clear solution | Crystal change ([5]; Tetrahydrofuran): Not found | ee of resulting solid ([5]; Tetrahydrofuran): 95.3%
Compound: CCN(CCO)CCC[C@H](C)Nc1ccnc2cc(Cl)ccc12.O=S(=O)(O)O [type A crystal, (S)-(+)-hydroxychloroquine sulfate]
stability in the test solvents (summary) ([5]; nine solvents): unexpectedly stable in all test solvents except in methanol

RH at which moisture is adsorbed (adsorption curve) [3]: higher than 60 % RH | moisture content [3]: 30% | hygroscopicity compared with the amorphous form [3]: less hygroscopic
Compound: CCN(CCO)CCC[C@H](C)Nc1ccnc2cc(Cl)ccc12.O=S(=O)(O)O [type B crystal, (S)-(+)-hydroxychloroquine sulfate]

Solubility ([6]; 2-Methyl-tetrahydrofuran): >38 mg/mL | Solubility ([6]; Acetone): >38 mg/mL | Solubility ([6]; Acetonitrile): 6.7 to 20 mg/mL | Solubility ([6]; Dichloromethane): >40 mg/mL | Solubility ([6]; Dioxane): >40 mg/mL | Solubility ([6]; Ethanol): >42 mg/mL | Solubility ([6]; Ethyl acetate): 6.7 to 20 mg/mL | Solubility ([6]; Isopropanol): >38 mg/mL | Solubility ([6]; Isopropyl acetate): 6.7 to 20 mg/mL | Solubility ([6]; Methanol): >40 mg/mL | Solubility ([6]; Methyl isobutyl ketone): >42 mg/mL | Solubility ([6]; Methyl tert-butyl ether): <2.1 mg/mL | Solubility ([6]; Tetrahydrofuran): >38 mg/mL | Solubility ([6]; Toluene): <2.0 mg/mL | Solubility ([6]; Water): <1.9 mg/mL | Solubility ([6]; n-Heptane): <2.1 mg/mL
Compound: (±)-hydroxychloroquine [salt-free form of (±)-hydroxychloroquine]
